Assay results as given in patent publication US20240199538A1, “Novel Chlorhexidine Salts and Related Compositions and Methods” (Colgate-Palmolive Company, priority 2022, published 2024).

Assay: CHG and CHG-SLS mixture aging study, CHX degradation products by GC-MS
Assay type: physicochemical
Conditions: aqueous 20% CHG solution, 60° C. oven
Procedure: Sample preparation for CHX degradation analysis by using GCMS analysis: Both aged solutions are taken from the 60° C.oven. They are diluted at 1:3.5 ratios with methanol. Both solutions are filtrated with a 0.20 um PTFE filter, respectively, then they are diluted again at a 1:10 dilution ratio with methanol and then transferred into a ROBO autosampler vials for GC-MS analysis. The gas chromatography system 6890N with 5972 MS detector plus Gerstel MPS-2 autosampler (Agilenet Technologies, Santa, Clara, CA, USA) is used for detection of CHX degradation products. Separation is accomplished using GC column of HP-5MS (30 m×0.25 mm×0.25 um, length×inside diameter×film thickness, Agilent Technologies). The 1 μL sample is injected with the splitless mode. The oven temperature is initially held at 80° C.for 1 min. Thereafter the temperature is raised at 6° C./min until 300° C.and held for 2.33 min. Total running time is 40 minutes. Helium is used as the carrier gas and delivered at a constant flow rate at 1 mL/min (the pressure at 9.38 psi and velocity at 37 cm/sec). The injector temperature is set at 250° C. and the interface temperature between GC oven and MS detector is250° C. […]

- Peak integration for CHX degradation product at 3 weeks (3 weeks): 523490
- Peak integration for CHX degradation product at 6 weeks (6 weeks): 7560037
SMILES: N=C(NCCCCCCNC(=N)NC(=N)Nc1ccc(Cl)cc1)NC(=N)Nc1ccc(Cl)cc1.O=C(O)[C@H](O)[C@@H](O)[C@H](O)[C@H](O)CO.O=C(O)[C@H](O)[C@@H](O)[C@H](O)[C@H](O)CO [CHG, chlorhexidine gluconate]
